This is an account of results in PubChem BioAssay AID256 (DTP/NCI, 2004).

Where “and” joins values, the source holds several entries; their conditions need not be identical. Identical values can stand only once. Toxic doses and inconclusive results are not listed. Starred links: 1 amine or outer side, 2 acyl side, 3 side chain; linkers in the order of their positions; H or OH if unused. Positions of bridges follow the written chain, without caps; N, C: chain ends. Non-standard residues stand in square brackets, D forms with d. Residues, ends and D or L forms follow the SMILES beside them. Chains are numbered I, II in the order given. Actinocin(1to9) = Cc1c2oc3c(C)ccc(C(=O)[*:2])c3nc-2c(C(=O)[*:1])c(N)c1=O; NMeV = CN[CH](C(=O)O)C(C)C; Aze = O=C(O)[CH]1CCN1; Sar = CNCC(=O)O

This assay relates to CD2F1 mice, L1210 leukemia ip, survival T/C. The assay is described as follows: NCI In Vivo Anticancer Drug Screen. Data for tumor model L1210 Leukemia (intraperitoneal) in CD2F1 (CDF1) mice. To be noted: higher = longer survival. The procedure, abridged: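 Tumor-bearing mice (transplanted tumor) were split into treated and vehicle control groups, and the measured endpoint of each treated group was divided by that of its vehicle controls.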

Where [1] appears, read: endpoint: mean survival time, dose: 50.0 mg/kg/injection, schedule: Q01DX009 (ip), vehicle: saline with Tween-80.
The mark [2] stands for this setting: endpoint: mean survival time, dose: 100.0 mg/kg/injection, schedule: Q01DX009 (ip), vehicle: saline with Tween-80.
Where [3] appears, read: endpoint: mean survival time, dose: 200.0 mg/kg/injection, schedule: Q01DX009 (ip), vehicle: saline with Tween-80.

As for `Cc1ccc2nc(-c3ccc(NC(=O)Nc4cccc(F)c4)cc3)sc2c1`, the T/C was 97 % of control under setting [1] and 97 % of control under setting [2].

Take `COc1ccc(C)c2nc3ccccc3nc12`: the T/C is 98 % of control (endpoint: mean survival time, dose: 100.0 mg/kg/injection, schedule: Q01DX001 (ip), vehicle: saline with Tween-80); 97 % of control (endpoint: mean survival time, dose: 200.0 mg/kg/injection, schedule: Q01DX001 (ip), vehicle: saline with Tween-80); 98 % of control (endpoint: mean survival time, dose: 400.0 mg/kg/injection, schedule: Q01DX001 (ip), vehicle: saline with Tween-80).

Turning to `CC(=O)Oc1ccccc1C(=O)O`, the T/C is 106 % of control (endpoint: mean survival time, dose: 31.3 mg/kg/injection, schedule: Q01DX009 (ip), vehicle: saline sonified); 100 % of control (endpoint: mean survival time, dose: 31.3 mg/kg/injection, schedule: Q01DX009 (ip), vehicle: saline with Tween-80); 97 % of control (endpoint: mean survival time, dose: 50.0 mg/kg/injection, schedule: Q03HX024 (ip), vehicle: saline); 101 % of control (endpoint: mean survival time, dose: 62.5 mg/kg/injection, schedule: Q01DX009 (ip), vehicle: saline sonified); 98 % of control (endpoint: mean survival time, dose: 62.5 mg/kg/injection, schedule: Q01DX009 (ip), vehicle: saline with Tween-80); 97 % of control (endpoint: mean survival time, dose: 100.0 mg/kg/injection, schedule: Q03HX024 (ip), vehicle: saline). Besides, the T/C runs as follows: (endpoint: mean survival time, dose: 125.0 mg/kg/injection, schedule: Q01DX009 (ip), vehicle: saline sonified) 98 % of control; (endpoint: mean survival time, dose: 125.0 mg/kg/injection, schedule: Q01DX009 (ip), vehicle: saline with Tween-80) 96 % of control and 100 % of control; (endpoint: mean survival time, dose: 250.0 mg/kg/injection, schedule: Q01DX009 (ip), vehicle: saline with Tween-80) 96 % of control; (endpoint: mean survival time, dose: 500.0 mg/kg/injection, schedule: Q01DX001 (ip), vehicle: saline with Tween-80) 104 % of control; (endpoint: mean survival time, dose: 1000.0 mg/kg/injection, schedule: Q01DX001 (ip), vehicle: saline with Tween-80) 104 % of control.

For the compound `CCCCCCCCCCCCCCCCOc1ccccc1CNc1cccc(S(=O)(=O)F)c1`, the T/C is 94 % of control under setting [2]; 95 % of control (endpoint: mean survival time, dose: 100.0 mg/kg/injection, schedule: Q04DX003 (ip), vehicle: saline with Tween-80); 91 % of control under setting [3]; 94 % of control (endpoint: mean survival time, dose: 200.0 mg/kg/injection, schedule: Q04DX003 (ip), vehicle: saline with Tween-80); 87 % of control (endpoint: mean survival time, dose: 400.0 mg/kg/injection, schedule: Q01DX009 (ip), vehicle: saline with Tween-80); 100 % of control (endpoint: mean survival time, dose: 400.0 mg/kg/injection, schedule: Q04DX003 (ip), vehicle: saline with Tween-80).

Turning to `CC(C)(C#N)OC(=O)Nc1cccc(Cl)c1`, the T/C reads like this: (endpoint: mean survival time, dose: 100.0 mg/kg/injection, schedule: Q04DX002 (ip), vehicle: saline with Tween-80) 93 % of control; (endpoint: mean survival time, dose: 200.0 mg/kg/injection, schedule: Q04DX002 (ip), vehicle: saline with Tween-80) 90 % of control; (endpoint: mean survival time, dose: 400.0 mg/kg/injection, schedule: Q04DX002 (ip), vehicle: saline with Tween-80) 86 % of control.

As to `NC1(C(=O)O)CCCC1.[Zn+2]`, the T/C (endpoint: mean survival time, dose: 100.0 mg/kg/injection, schedule: Q01DX001 (ip), vehicle: saline) is 100 % of control and the T/C (endpoint: mean survival time, dose: 400.0 mg/kg/injection, schedule: Q01DX001 (ip), vehicle: saline) was 120 % of control.

Turning to `CC(c1ccccc1)n1ccnc1CO` (stereo not drawn), the T/C is, setting by setting: (endpoint: mean survival time, dose: 12.5 mg/kg/injection, schedule: Q01DX009 (ip), vehicle: saline with Tween-80) 96 % of control; (endpoint: mean survival time, dose: 25.0 mg/kg/injection, schedule: Q01DX009 (ip), vehicle: saline with Tween-80) 104 % of control; under setting [1], 96 % of control and 102 % of control; under setting [2], 91 % of control; under setting [3], 98 % of control.

As for `Cc1cc(=O)[nH]c(=O)[nH]1`, the T/C was 95 % of control (endpoint: mean survival time, dose: 50.0 mg/kg/injection, schedule: Q01DX001 (ip), vehicle: Klucel (hydroxypropylcellulose) (HPC)); 98 % of control (endpoint: mean survival time, dose: 50.0 mg/kg/injection, schedule: Q01DX009 (ip), vehicle: Klucel (hydroxypropylcellulose) (HPC)); 104 % of control (endpoint: mean survival time, dose: 100.0 mg/kg/injection, schedule: Q01DX001 (ip), vehicle: Klucel (hydroxypropylcellulose) (HPC)); 98 % of control (endpoint: mean survival time, dose: 100.0 mg/kg/injection, schedule: Q01DX009 (ip), vehicle: Klucel (hydroxypropylcellulose) (HPC)); 98 % of control (endpoint: mean survival time, dose: 200.0 mg/kg/injection, schedule: Q01DX001 (ip), vehicle: Klucel (hydroxypropylcellulose) (HPC)); 102 % of control (endpoint: mean survival time, dose: 200.0 mg/kg/injection, schedule: Q01DX009 (ip), vehicle: Klucel (hydroxypropylcellulose) (HPC)).

In the case of `O=C1C=CC(=CC=C2C=CN(CCCCCCCCCCCO)C=C2)C=C1`, the T/C is 96 % of control (endpoint: median survival time, dose: 1.56 mg/kg/injection, schedule: Q01DX005 (ip), vehicle: saline with Tween-80); 102 % of control and 105 % of control (endpoint: median survival time, dose: 2.25 mg/kg/injection, schedule: Q01DX005 (ip), vehicle: saline with Tween-80); 107 % of control (endpoint: median survival time, dose: 3.13 mg/kg/injection, schedule: Q01DX005 (ip), vehicle: saline with Tween-80); 102 % of control and 105 % of control (endpoint: median survival time, dose: 3.75 mg/kg/injection, schedule: Q01DX005 (ip), vehicle: saline with Tween-80); 117 % of control and 109 % of control (endpoint: median survival time, dose: 6.25 mg/kg/injection, schedule: Q01DX005 (ip), vehicle: saline with Tween-80); 118 % of control (endpoint: median survival time, dose: 10.4 mg/kg/injection, schedule: Q01DX005 (ip), vehicle: saline with Tween-80). In addition, the T/C reads like this: (endpoint: median survival time, dose: 10.41 mg/kg/injection, schedule: Q01DX005 (ip), vehicle: saline with Tween-80) 118 % of control; (endpoint: median survival time, dose: 12.5 mg/kg/injection, schedule: Q01DX005 (ip), vehicle: saline with Tween-80) 119 % of control; (endpoint: median survival time, dose: 17.35 mg/kg/injection, schedule: Q01DX005 (ip), vehicle: saline with Tween-80) 119 % of control; (endpoint: median survival time, dose: 17.4 mg/kg/injection, schedule: Q01DX005 (ip), vehicle: saline with Tween-80) 121 % of control; (endpoint: median survival time, dose: 25.0 mg/kg/injection, schedule: Q01DX005 (ip), vehicle: saline with Tween-80) 92 % of control.

In the case of `O=C(C[n+]1ccc2ccccc2c1)c1ccc2ccccc2c1`, the T/C by setting is: (endpoint: mean survival time, dose: 12.5 mg/kg/injection, schedule: Q04DX003 (ip), vehicle: saline with Tween-80) 92 % of control; (endpoint: mean survival time, dose: 25.0 mg/kg/injection, schedule: Q04DX003 (ip), vehicle: saline with Tween-80) 86 % of control.

Consider `COC(=O)C(CC(C)C)NC(=O)C(CSC(c1ccccc1)(c1ccccc1)c1ccccc1)NC(c1ccccc1)(c1ccccc1)c1ccccc1` (stereo not drawn), for which the T/C (endpoint: mean survival time, dose: 50.0 mg/kg/injection, schedule: Q01DX009 (ip), vehicle: saline) is 97 % of control; the T/C (endpoint: mean survival time, dose: 100.0 mg/kg/injection, schedule: Q01DX009 (ip), vehicle: saline) is 97 % of control; the T/C (endpoint: mean survival time, dose: 200.0 mg/kg/injection, schedule: Q01DX009 (ip), vehicle: saline) is 92 % of control; the T/C (endpoint: mean survival time, dose: 400.0 mg/kg/injection, schedule: Q01DX009 (ip), vehicle: saline) was 97 % of control.

Regarding `Cc1c2oc3c(C)ccc(C(=O)NC4C(=O)NC(C(C)C)C(=O)N5CCCC5C(=O)N(C)CC(=O)N(C)C(C(C)C)C(=O)OC4C)c3nc-2c(C(=O)NC2C(=O)NC(C(C)C)C(=O)N3CCC3C(=O)N(C)CC(=O)N(C)C(C(C)C)C(=O)OC2C)c(N)c1=O` (stereo not drawn) (I: TV[Aze][Sar][NMeV] / II: TVP[Sar][NMeV]; ester I:1-I:C, II:1-II:C; linker I:N-II:N via Actinocin(1to9); configuration not given here), the T/C by setting is: (endpoint: mean survival time, dose: 37.0 micrograms/kg/injection, schedule: Q01DX009 (ip), vehicle: saline + alcohol) 103 % of control; (endpoint: mean survival time, dose: 75.0 micrograms/kg/injection, schedule: Q01DX009 (ip), vehicle: saline + alcohol) 117 % of control; (endpoint: mean survival time, dose: 300.0 micrograms/kg/injection, schedule: Q01DX009 (ip), vehicle: saline + alcohol) 151 % of control; (endpoint: mean survival time, dose: 600.0 micrograms/kg/injection, schedule: Q01DX009 (ip), vehicle: saline + alcohol) 109 % of control; (endpoint: median survival time, dose: 12.5 micrograms/kg/injection, schedule: Q01DX009 (ip), vehicle: saline) 108 % of control; (endpoint: median survival time, dose: 25.0 micrograms/kg/injection, schedule: Q01DX009 (ip), vehicle: saline) 115 % of control. Besides, the T/C (endpoint: median survival time, dose: 50.0 micrograms/kg/injection, schedule: Q01DX009 (ip), vehicle: saline) was 115 % of control; the T/C (endpoint: median survival time, dose: 100.0 micrograms/kg/injection, schedule: Q01DX009 (ip), vehicle: saline) is 123 % of control; the T/C (endpoint: median survival time, dose: 200.0 micrograms/kg/injection, schedule: Q01DX009 (ip), vehicle: saline) was 150 % of control; the T/C (endpoint: median survival time, dose: 400.0 micrograms/kg/injection, schedule: Q01DX009 (ip), vehicle: saline) was 91 % of control.

`O=C(Nc1nccs1)c1ccc(Cl)cc1`: the T/C is, setting by setting: under setting [1], 96 % of control; under setting [2], 96 % of control; under setting [3], 92 % of control.
